{"source": "ChEMBL document CHEMBL3608269", "about": "“Triazole-Linked Glycolipids Enhance the Susceptibility of MRSA to β-Lactam Antibiotics” (ACS Med Chem Lett, 2015)", "key": {"Staphylococcus aureus [1]": {"test_system": "Staphylococcus aureus", "assay": "Potentiation of oxacillin-mediated antibacterial activity against methicillin-resistant Staphylococcus aureus ATCC 43300 at 32 ug/ml after 20 to 24 hrs by CLSI method", "assay_type": "functional"}, "Staphylococcus aureus [2]": {"test_system": "Staphylococcus aureus", "assay": "Potentiation of oxacillin-mediated antibacterial activity against methicillin-resistant Staphylococcus aureus ATCC 43300 assessed as decrease in oxacillin MIC at 32 ug/ml after 20 to 24 hrs by CLSI method relative to control", "assay_type": "functional"}, "MEF": {"test_system": "MEF", "assay": "Cytotoxicity against MEF assessed as cell viability at 8 to 128 ug/ml by MTS assay", "assay_type": "cell-based", "conditions": "mouse; call rule not given here"}, "Staphylococcus aureus [3]": {"test_system": "Staphylococcus aureus", "assay": "Potentiation of oxacillin-mediated antibacterial activity against methicillin-resistant Staphylococcus aureus ATCC 43300 assessed as decrease in oxacillin MIC at 32 ug/ml by checkerboard method relative to control", "assay_type": "functional"}, "Staphylococcus aureus [4]": {"test_system": "Staphylococcus aureus", "assay": "Potentiation of cefoxitin-mediated antibacterial activity against methicillin-resistant Staphylococcus aureus ATCC 43300 assessed as decrease in cefoxitin MIC at 32 ug/ml by checkerboard method relative to control", "assay_type": "functional"}, "Staphylococcus aureus [5]": {"test_system": "Staphylococcus aureus", "assay": "Potentiation of cefotiam-mediated antibacterial activity against methicillin-resistant Staphylococcus aureus ATCC 43300 assessed as decrease in cefotiam MIC at 32 ug/ml by checkerboard method relative to control", "assay_type": "functional"}, "Staphylococcus aureus [6]": {"test_system": "Staphylococcus aureus", "assay": "Potentiation of cefmetazole-mediated antibacterial activity against methicillin-resistant Staphylococcus aureus ATCC 43300 assessed as decrease in cefmetazole MIC at 32 ug/ml by checkerboard method relative to control", "assay_type": "functional"}, "Staphylococcus aureus [7]": {"test_system": "Staphylococcus aureus", "assay": "Potentiation of cefaclor-mediated antibacterial activity against methicillin-resistant Staphylococcus aureus ATCC 43300 assessed as decrease in cefaclor MIC at 32 ug/ml by checkerboard method relative to control", "assay_type": "functional"}, "Staphylococcus aureus [8]": {"test_system": "Staphylococcus aureus", "assay": "Potentiation of ceftriaxone mediated antibacterial activity against methicillin-resistant Staphylococcus aureus ATCC 43300 assessed as decrease in ceftriaxone MIC at 32 ug/ml by checkerboard method relative to control", "assay_type": "functional"}, "Staphylococcus aureus [9]": {"test_system": "Staphylococcus aureus", "assay": "Potentiation of cefoperazone mediated antibacterial activity against methicillin-resistant Staphylococcus aureus ATCC 43300 assessed as decrease in cefoperazone MIC at 32 ug/ml by checkerboard method relative to control", "assay_type": "functional"}, "Staphylococcus aureus [10]": {"test_system": "Staphylococcus aureus", "assay": "Potentiation of cefotaxime mediated antibacterial activity against methicillin-resistant Staphylococcus aureus ATCC 43300 assessed as decrease in cefotaxime MIC at 32 ug/ml by checkerboard method relative to control", "assay_type": "functional"}, "Staphylococcus aureus [11]": {"test_system": "Staphylococcus aureus", "assay": "Cellular uptake in methicillin-resistant Staphylococcus aureus ATCC 43300 by HPLC analysis in presence of oxacillin", "assay_type": "ADME, organism-based", "conditions": "in vivo"}, "Staphylococcus aureus [12]": {"test_system": "Staphylococcus aureus", "assay": "Potentiation of oxacillin-mediated antibacterial activity against methicillin-resistant Staphylococcus aureus R15 clinical isolate at 32 ug/ml after 20 to 24 hrs by CLSI method", "assay_type": "functional"}, "Staphylococcus aureus [13]": {"test_system": "Staphylococcus aureus", "assay": "Potentiation of oxacillin-mediated antibacterial activity against methicillin-resistant Staphylococcus aureus R16 clinical isolate at 32 ug/ml after 20 to 24 hrs by CLSI method", "assay_type": "functional"}, "Staphylococcus aureus [14]": {"test_system": "Staphylococcus aureus", "assay": "Potentiation of oxacillin-mediated antibacterial activity against methicillin-resistant Staphylococcus aureus R36 clinical isolate at 32 ug/ml after 20 to 24 hrs by CLSI method", "assay_type": "functional"}, "Staphylococcus aureus [15]": {"test_system": "Staphylococcus aureus", "assay": "Potentiation of oxacillin-mediated antibacterial activity against methicillin-resistant Staphylococcus aureus R53 clinical isolate at 16 ug/ml after 20 to 24 hrs by CLSI method", "assay_type": "functional"}, "Staphylococcus aureus [16]": {"test_system": "Staphylococcus aureus", "assay": "Potentiation of oxacillin-mediated antibacterial activity against methicillin-resistant Staphylococcus aureus R302 clinical isolate at 32 ug/ml after 20 to 24 hrs by CLSI method", "assay_type": "functional"}, "Staphylococcus aureus [17]": {"test_system": "Staphylococcus aureus", "assay": "Potentiation of oxacillin-mediated antibacterial activity against methicillin-resistant Staphylococcus aureus R49 clinical isolate assessed as decrease in oxacillin MIC at 16 ug/ml after 20 to 24 hrs by CLSI method relative to control", "assay_type": "functional"}, "Staphylococcus aureus [18]": {"test_system": "Staphylococcus aureus", "assay": "Potentiation of oxacillin-mediated antibacterial activity against methicillin-resistant Staphylococcus aureus R304 clinical isolate assessed as decrease in oxacillin MIC at 32 ug/ml after 20 to 24 hrs by CLSI method relative to control", "assay_type": "functional"}, "Staphylococcus aureus [19]": {"test_system": "Staphylococcus aureus", "assay": "Potentiation of oxacillin-mediated antibacterial activity against methicillin-resistant Staphylococcus aureus R313 clinical isolate assessed as decrease in oxacillin MIC at 32 ug/ml after 20 to 24 hrs by CLSI method relative to control", "assay_type": "functional"}, "Staphylococcus aureus [20]": {"test_system": "Staphylococcus aureus", "assay": "Potentiation of oxacillin-mediated antibacterial activity against methicillin-resistant Staphylococcus aureus R314 clinical isolate assessed as decrease in oxacillin MIC at 32 ug/ml after 20 to 24 hrs by CLSI method relative to control", "assay_type": "functional"}}}
{"compound": "CCCCCCCCCCCCOCc1cn([C@@H]2O[C@H](CO)[C@@H](O)[C@H](O)[C@H]2O)nn1", "values": [{"measurement": "MIC", "setting": "Staphylococcus aureus [1]", "value": 1, "unit": "µg/mL"}, {"measurement": "fold change (FC)", "setting": "Staphylococcus aureus [2]", "value": 128}, {"measurement": "Activity", "setting": "MEF", "value": "Non-toxic"}, {"measurement": "fold change (FC)", "setting": "Staphylococcus aureus [3]", "value": "<=256"}, {"measurement": "fold change (FC)", "setting": "Staphylococcus aureus [4]", "value": "<=256"}, {"measurement": "fold change (FC)", "setting": "Staphylococcus aureus [5]", "value": "<=256"}, {"measurement": "fold change (FC)", "setting": "Staphylococcus aureus [6]", "value": "<=256"}, {"measurement": "fold change (FC)", "setting": "Staphylococcus aureus [7]", "value": "<=256"}, {"measurement": "fold change (FC)", "setting": "Staphylococcus aureus [8]", "value": "<=256"}, {"measurement": "fold change (FC)", "setting": "Staphylococcus aureus [9]", "value": "<=256"}, {"measurement": "fold change (FC)", "setting": "Staphylococcus aureus [10]", "value": "<=256"}, {"measurement": "Drug uptake", "setting": "Staphylococcus aureus [11]", "value": "Active"}, {"measurement": "MIC", "setting": "Staphylococcus aureus [12]", "value": 64, "unit": "µg/mL"}, {"measurement": "MIC", "setting": "Staphylococcus aureus [13]", "value": 64, "unit": "µg/mL"}, {"measurement": "MIC", "setting": "Staphylococcus aureus [14]", "value": 8, "unit": "µg/mL"}, {"measurement": "MIC", "setting": "Staphylococcus aureus [15]", "value": "< 1", "unit": "µg/mL"}, {"measurement": "MIC", "setting": "Staphylococcus aureus [16]", "value": 128, "unit": "µg/mL"}, {"measurement": "MIC", "setting": "Staphylococcus aureus [17]", "value": 8, "unit": "µg/mL"}, {"measurement": "MIC", "setting": "Staphylococcus aureus [18]", "value": 2, "unit": "µg/mL"}, {"measurement": "MIC", "setting": "Staphylococcus aureus [19]", "value": 1, "unit": "µg/mL"}, {"measurement": "MIC", "setting": "Staphylococcus aureus [20]", "value": 32, "unit": "µg/mL"}]}
